In US20220305021A1, “METHODS OF TREATING AND/OR PREVENTING PSORIASIS” (Athenex, Inc., priority 2019, published 2022):

What was measured:
mini-pigs = assay: Once daily KX-01 1% ointment on mini-pigs, occluded skin, 28 days; assay type: in vivo, mini-pig
Text: KX-01 1% once daily administration of KX-01 ointment was examined on the mini-pigs on 10% of body surface area with skin being occluded for consecutive 28 days.

rats = assay: Twice daily dermal administration of KX-01 ointment to rats (six days); assay type: in vivo, rat
Description: Subjects in clinical studies of KX-01 ointment where administered KX-01 ointment up to 250 mg (5 mg/cm^2 [administration amount]×25 cm^2 [administration area]×2 [safety factor for larger application area]). This amount of the 0.01% or 0.1% concentration of ointment contains 0.025 mg or 0.25 mg of KX-01. Therefore, the amount of KX-01 delivered to the skin of the average 60 kg subject is 0.025 or 0.25 mg/60 kg/dose, or 0.00042 or 0.0042 mg/kg/dose. […] The safety margin in administered dermal KX-01 dose indicates little risk of adverse systemic effects in humans under the conditions of the clinical studies of KX-01 ointment based on nonclinical studies in animals.

subjects with psoriasis = assay: Phase I clinical trial of topical KX-01 ointment in subjects with psoriasis; assay type: in vivo, human
Description: Six subjects with psoriasis with Total Area Score (TAS) of 4-8 (based on the sum of the scores of erythema, elevation and scaling) were assessed. […] In stage I, each subject will be assigned randomly to KX-01 (0.01%, n=6) or placebo (n=2) before the first administration of investigational medicinal product (KX-01 or placebo). 22 subjects are recruited in three stages. Each subject in stage I will receive treatment for two weeks, followed by one-week wash-out, another two-week treatment, and then two-week follow-up. After a satisfactory collaborative review for the safety data of the lower strength (0.01%) at the end of follow up for each subject, if there is no major safety concern (major safety concern is defined as ≥2 subjects in the KX-01 group having ≥CTCAE Grade 3 or severe adverse drug reaction), as well as an unanimous consent by the sponsor and the principle investigator(s), stage II study begins where each subject is assigned randomly to KX-01 (0.1%, n=6) or placebo (n=2) before the first administration. Each subject in the stage II will receive treatment for four weeks, followed by a two-week follow-up. After a satisfactory collaborative review for the safety data of the lower strength (0.1%) at the end of follow up for each subject, if there is no major safety concern, stage III study follows. Stage III comprises a single arm study (n=6), where each subject will receive 1% KX-01 once daily for consecutive five days and then receive post-treatment follow-up on day 6, 15, and 29. • Stage I: 6 subjects (KX-01 0.01% [0.1 mg/g])+2 subjects (placebo) • Stage II: 6 subjects (KX-01 0.1% [1.0 mg/g])+2 subjects (placebo) • Stage III: 6 subjects (KX-01 1% [10 mg/g]) Subjects visit the study center for ambulatory visits: • Stage I (See Tables 1A and 1B) • Visit 1: Screening, within 28 days before first application of IMP • Visit 2: Week 1 (Day 1/Baseline) • Visit 3: Week 2 (Day 8±3/After consecutive 1-week treatment) • Visit 4: Week 3 (Day 15±3/After consecutive 2-week treatment) • Visit 5: Week 4 (Day 22±3/After 1 week wash-out) • Visit 6: Week 6 (Day 36±3/After another consecutive 2-week treatment) • Visit 7: Week 8 (Day 50±3/After 2-week post-treatment follow-up) • Stage II (See Tables 2A and 2B) • Visit 1: Screening, within 28 days before first application of IMP • Visit 2: Week 1 (Day 1/Baseline) • Telephone interview (Day 8±3, after consecutive 1-week treatment) • Visit 3: Week 3 (Day 15±3/After consecutive 2-week treatment) • Visit 4: Week 5 (Day 29±3/After consecutive 4-week treatment) • Visit 5: Week 7 (Day 43±3/After 2-week post-treatment follow-up) • […] (See Table 3) • Visit 1: Screening, within 28 days before first application of IMP • Visit 2: Day 1, baseline • Visit 3: Day 6±1, after consecutive 5-day treatment • Visit 4: Day 15±2, after 10-day post-treatment follow up • Visit 5: Day 29±2, after 24-day post-treatment follow-up The IMP (treatment or placebo) is applied to a single lesion. […] For stage I, each subject receives IMP for 14 consecutive days, followed by 1-week wash-out period and then receives IMP for another 14 consecutive days. For stage II, each subject receives IMP for 28 consecutive days. For stage III, each subject receives IMP once daily for consecutive five days. For stage I and II, blood samples for the determination of KX-01 concentrations are collected prior to the morning dose at the designated ambulatory visits to the study center (Stage I: Day 1, 8±3, 15±3, 22±3 Stage II: Day 1, 15±3, 29±3) (See Table 4). For stage III, blood samples for drug concentrations are collected prior to the dose on day 1, and day 6±1, day 15±2. The duration of this study is approximately three months for each subjects (See Table 4). On day 1, a single treatment lesion consisting of active psoriasis skin lesion of at least 16 cm^2 in size with upper limit of 625 cm^2 for stage I and II, and at least 16 cm^2 and no more than 100 cm^2 (≥16 cm^2 &≤100 cm^2) in size for stage III is selected for each subject. […]

rabbits = assay: Twice daily dermal administration of KX-01 ointment to rabbits (seven days, single dose on day eight); assay type: in vivo, rabbit; settings: up to 2.0667 mg/kg KX-01 in ointment, seven days twice daily dosing with a single dose on day eight
[1] = 1% ointment once daily, 10% of body surface area, occluded, 28 consecutive days
[2] = 1% ointment daily for five days, observed in one subject
[3] = KX-01 ointment 0.01% twice daily dose regimen

O=C(Cc1ccc(-c2ccc(OCCN3CCOCC3)cc2)cn1)NCc1ccccc1 [KX-01, Tirbanibulin]
Body weight (mini-pigs; [1]): decreased
Edema at the drug application site (mini-pigs; [1]): very slight to slight
Erythema and eschar at the drug application site (mini-pigs; [1]): very slight to severe
Hepatic, renal, and haematological profiles (mini-pigs; [1]): changes
Other skin findings at the drug application site (mini-pigs; [1]): desquamation, fissuring, scab, ulceration
Reversibility of findings (mini-pigs; by the last week of recovery after 28 days of 1% ointment): Most of these findings were resolved
Safety margin: clinical dermal dose times lower than rat 12.4 mg/kg/dose (rats; 0.01% ointment, 0.025 mg/60 kg/dose (0.00042 mg/kg/dose) in humans vs 12.4 mg/kg/dose in rats): approximately 29700 times
Safety margin: clinical dermal dose times lower than rat 12.4 mg/kg/dose (rats; 0.1% ointment, 0.25 mg/60 kg/dose (0.0042 mg/kg/dose) in humans vs 12.4 mg/kg/dose in rats): ~2970 times
Plasma concentrations of KX-01 (rats; rat, in vivo): very low
Systemic absorption of KX-01 (subjects with psoriasis; 1% ointment daily for five days, topical): no significant absorption
Psoriatic plaque thickness (subjects with psoriasis; 1% ointment daily for five days, another subject of six): improvement
Skin burning sensation (adverse event severity) (subjects with psoriasis; [2]): mild (grade-1)
Skin irritation (adverse event severity) (subjects with psoriasis; [2]): mild (grade-1)
Skin scaling (subjects with psoriasis; 1% ointment daily for five days, one subject of six): complete resolution
Tolerability of treatment (subjects with psoriasis; 1% ointment daily for five days, six subjects): well-tolerated
TAS score (sum of erythema, elevation and scaling) (subjects with psoriasis; 1% ointment daily for five days, six subjects, baseline TAS 4-8): All subjects showed an improvement
Clinical activity (subjects with psoriasis; KX-01 (Tirbanibulin) 1% ointment daily for five days, first cohort of subjects with psoriasis): Clinical activity signals were observed
Serious adverse events (SAE) (subjects with psoriasis; [3]): No serious adverse event
Treatment-emergent adverse events related to drug (subjects with psoriasis; [3]): Only one treatment-emergent adverse event, Grade 1 tenderness
Tolerability (subjects with psoriasis; KX-01 ointment 0.01% twice daily dose regimen, most subjects): excellent and good
Safety profile (subjects with psoriasis; KX-01 ointment in the treatment of psoriasis): Good safety profile
Skin irritation (rabbits): mild to moderate
Systemic adverse effects (rabbits): no signs of systemic adverse effects
